From paper PMC6801448, “The Antioxidant and Antiproliferative Activities of 1,2,3-Triazolyl-L-Ascorbic Acid Derivatives” (International Journal of Molecular Sciences, 2019)
Where two headings read alike, the source gives them in different places.

What was measured:
[1] = system: MCF-7 (breast adenocarcinoma); assay: MTT proliferation assay, MCF-7; assay type: cell-based, Human; conditions: Homo sapiens, MCF7; 72 h, MTT
Procedure: (§1) Human tumor cell lines HeLa (cervical carcinoma), SW620 (colorectal adenocarcinoma, metastatic), A549 (lung adenocarcinoma), MCF−7 (breast adenocarcinoma), CFPAC-1 (pancreatic adenocarcinoma, metastatic), HCT-116 (colorectal carcinoma), and HepG2 (hepatocellular carcinoma), and normal cell lines HFF-1 (foreskin fibroblasts) and WI-38 (immortalized human lung fibroblast), were from the US American Type Culture Collection (ATCC, Manassas, VA, USA). Cells were cultured in a liquid nutrient medium (Dulbecco’s Modified Eagle Medium, LONZA, Basel, Switzerland) supplemented with 10% fetal bovine serum (FBS, Gibco, Grand Island, NY, USA), 2 mM L-glutamine (GIBCO, Grand Island, NY, USA), 100 μg/mL penicillin, and 100 μg/mL streptomycin (LONZA, Basel, Switzerland), in an incubator (NÜVE, Ankara, Turkey), at a humid atmosphere with 5% CO2 at 37 °C. Trypsin/EDTA Solution (Lonza, Basel, Switzerland), was used for cell passaging and cell detachment.
(§2) Adherent cells were seeded on 96 well microtiter plates (Falcon, New York, NY, USA) at a seeding density of 5000 cells per well, added in 150 μL of cell suspension in a nutrient medium. 24 h after seeding, cells were treated with compound 4b–4g, 4i, 4k–4t, 4v, 7c–7g, and 7i–7q dilutions in the range of 0.01 μM to 100 μM. L-ascoric acid (Sigma Aldrich, Darmstadt, Germany) and Carboxyamidotriazole (Sigma Aldrich, Darmstadt, Germany) were used as control compounds. Incubation of the cells with the compounds were performed for 72 h in a 5% CO2, in humid atmosphere at 37 °C. After incubation, nutrient medium was removed and 40 μL of the MTT reagent ([…]-2,5-diphenyltetrazole bromide (Invitrogen, Carlsbad, CA, USA) was added to each well. 3 h after incubation, 160 μL of DMSO (VWR CHEMICALS, Radnor, PA, USA) were added to each well to dissolve the crystals of purple formazane. The absorbance was measured at 570 nm (TECAN SUNRISE Microtiter plate reader (Männedorf, Switzerland). The experimentally measured optical densities (OD) were converted to the PG (percentage of growth), using the formulas according to the protocol assumed by NIH (National Institute of Health). The IC50 values (concentration causing 50% cell growth inhibition) for each compound were calculated by regression analysis of the survival count curve of the concentrations of the tested compounds. The results were processed in Excel 2010 (Microsoft, Redmond, WA, USA).

WI-38 (lung fibroblasts) = assay: MTT proliferation assay, WI-38; assay type: cell-based; conditions: Homo sapiens, 72 h, normal lung fibroblasts
Procedure: as §1, §2

[2] = system: CFPAC-1 (ductal pancreatic adenocarcinoma); assay: MTT proliferation assay, CFPAC-1; assay type: cell-based; conditions: Homo sapiens, 72 h
Procedure: as §1, §2

[3] = system: HeLa (cervical carcinoma); assay: MTT proliferation assay, HeLa; assay type: cell-based; conditions: Homo sapiens, 72 h
Procedure: as §1, §2

[4] = system: HFF-1 (foreskin fibroblasts); assay: MTT proliferation assay, HFF-1; assay type: cell-based; conditions: Homo sapiens, 72 h, normal foreskin fibroblasts
Procedure: as §1, §2

[5] = system: HepG2 (hepatocellular carcinoma); assay: MTT proliferation assay, HepG2; assay type: cell-based; conditions: Homo sapiens, 72 h
Procedure: as §1, §2

[6] = system: A549 (lung adenocarcinoma); assay: MTT proliferation assay, A549; assay type: cell-based; conditions: Homo sapiens, 72 h
Procedure: as §1, §2

[7] = system: HCT-116 (colorectal carcinoma); assay: MTT proliferation assay, HCT-116; assay type: cell-based; conditions: Homo sapiens, 72 h
Procedure: as §1, §2

[8] = system: SW620 (colorectal adenocarcinoma, metastatic); assay: MTT proliferation assay, SW620; assay type: cell-based; conditions: Homo sapiens, SW-620, 72 h
Procedure: as §1, §2

[9] = DPPH radical scavenging assay; assay type: biochemical
Procedure: Likewise, L-ASA, the 1,2,3-triazole L-ASA derivatives with free C2-OH and C3-OH groups were expected to be potent antioxidants. Therefore, they were tested as radical scavengers by reaction with the stable free radical 2,2-diphenyl-1-picrylhydrazyl (DPPH^•).
Antioxidant capacity of selected compounds was assessed by 2,2-diphenyl-1-picrylhydrazyl assay (DPPH, Sigma Aldrich, Darmstadt, Germany), in which the antioxidant activity of compounds is measured by the reaction between a stable radical of 1,1-diphenyl-2-picylhydrazil (DPPH^•) and a selected compound according to the manufacturer recommendations. Briefly, compounds 4b–4e, 4f–4h, 4k, 4l, 4o, 4p–4s, 4t, 4v, 7c–7f, 7i–7n, 7q, 7p, and 7o were tested at 0.06, 0.12, 0.18, 0.23, 0.25, and 0.28 mM. L-ascorbic acid was used as the reference compound. Absorbance was measured 5 and 10 min after incubation of the compounds with the DPPH reagent. The reduction of DPPH with selected compounds was monitored by measuring the absorbance at a wavelength of 517 nm on the monochromator (Infinite M200 PRO, TECAN, Männedorf, Switzerland).

[10] = 5 min treatment, read-out: IC50 of DPPH• inhibition, Treatm. 5 min
[11] = 10 min treatment, read-out: IC50 of DPPH• inhibition, Treatm. 10 min

| SMILES | IC50 [1] [µM] | IC50 (WI-38 (lung fibroblasts)) [µM] | melting point [°C] | IC50 [2] [µM] | IC50 [3] [µM] | IC50 [4] [µM] | IC50 [5] [µM] | IC50 [6] [µM] | IC50 [7] [µM] | IC50 [8] [µM] | IC50 [9, 10] [µM] | IC50 [9, 11] [µM] |
| --- | --- | --- | --- | --- | --- | --- | --- | --- | --- | --- | --- | --- |
| O=C1O[C@H]([C@@H](O)Cn2cc(CNS(=O)(=O)c3ccc(F)cc3Cl)nn2)C(O)=C1O [Compound 4t] | > 100 | > 100 | 198 to 200 | > 100 | > 100 | > 100 | > 100 | > 100 | > 100 | > 100 | 220 ± 80 | 120 ± 20 |
| O=C1O[C@H]([C@@H](O)Cn2cc(-c3ccccc3O)nn2)C(O)=C1O [Compound 4i, 6-deoxy-6-[2-hydroxyphenyl-1,2,3-triazol-1-yl]-L-ascorbic acid] | > 100 | > 100 | 129 to 131 | > 100 | > 100 | 0.92 | > 100 | > 100 | > 100 | > 100 | > 280 | > 280 |
| O=C1O[C@H]([C@@H](O)Cn2cc(C3CC3)nn2)C(O)=C1O [Compound 4l, 6-[4-cyclopropyl-1,2,3-triazol-1-yl]-6-deoxy-L-ascorbic acid] | > 100 | > 100 | 119 to 121 | > 100 | > 100 | 4.61 | > 100 | > 100 | > 100 | > 100 | 170 ± 160 | 160 ± 140 |
| CCCCc1cn(C[C@H](O)[C@H]2OC(=O)C(O)=C2O)nn1 [Compound 4m, 6-(4-butyl-1,2,3-triazol-1-yl)-6-deoxy-L-ascorbic acid] | > 100 | > 100 | 98 to 99 | > 100 | > 100 | 0.12 | > 100 | > 100 | > 100 | > 100 | > 280 | > 280 |
| Cc1ccc(S(=O)(=O)NCc2cn(C[C@H](O)[C@H]3OC(=O)C(O)=C3O)nn2)cc1 [Compound 4r] | > 100 | > 100 | 125 to 127 | > 100 | > 100 | > 100 | > 100 | > 100 | > 100 | > 100 | 250 | 270 ± 20 |
| O=C1O[C@H]([C@@H](O)Cn2cc(CCO)nn2)C(O)=C1O [Compound 4q, 6-deoxy-6-(4-(2-hydroxyethyl)-1,2,3-triazol-1-yl)-L-ascorbic acid] | > 100 | > 100 | 184 to 186 | > 100 | > 100 | > 100 | > 100 | > 100 | 63.3 | > 100 | 240 ± 20 | 230 |
| O=C1O[C@H]([C@@H](O)Cn2cc(-c3cc(C(F)(F)F)cc(C(F)(F)F)c3)nn2)C(O)=C1O [Compound 4c, 6-deoxy-6-[4-(3,5-bis(trifluoromethyl)phenyl)-1,2,3-triazol-1-yl]-L-ascorbic acid] | > 100 | > 100 | ≥ 250 | > 100 | > 100 | > 100 | > 100 | > 100 | > 100 | > 100 | 260 ± 20 | 250 |
| CCCCCCCCCCc1cn(C[C@H](O)[C@H]2OC(=O)C(O)=C2O)nn1 [Compound 4n, 6-(4-decyl-1,2,3-triazol-1-yl)-6-deoxy-L-ascorbic acid] | > 100 | > 100 | 140 to 142 | > 100 | > 100 | 0.06 | > 100 | > 100 | > 100 | > 100 | 150 ± 60 | 100 ± 30 |
| O=C1O[C@H]([C@@H](O)Cn2cc(CNS(=O)(=O)c3ccc(Cl)cc3)nn2)C(O)=C1O [Compound 4s] | > 100 | > 100 | 132 to 134 | > 100 | > 100 | 0.4 | > 100 | > 100 | > 100 | > 100 | 270 ± 20 | 250 |
| CCCCCc1ccc(-c2cn(C[C@H](O)[C@H]3OC(=O)C(O)=C3O)nn2)cc1 [Compound 4k, 6-deoxy-6-[4-(4-pentylphenyl)-1,2,3-triazol-1-yl]-L-ascorbic acid] | 26.9 | > 100 | 237 to 239 | > 100 | > 100 | 0.21 | > 100 | > 100 | > 100 | > 100 | 210 ± 70 | 130 ± 40 |
| CC(C)(C)c1cn(C[C@H](O)[C@H]2OC(=O)C(O)=C2O)nn1 [Compound 4o, 6-[4-(tert-butyl)-1,2,3-triazol-1-yl]-6-deoxy-L-ascorbic acid] | > 100 | 95 | ≥ 250 | > 100 | 93 | < 0.01 | > 100 | > 100 | > 100 | > 100 | 240 ± 28 | 240 ± 40 |
| O=C1O[C@H]([C@@H](O)Cn2cc(CCCCl)nn2)C(O)=C1O [Compound 4p, 6-[4-(3-chloropropyl)-1,2,3-triazol-1-yl]-6-deoxy-L-ascorbic acid] | 99.6 | 52.6 | 86 to 88 | > 100 | 48 | 6.05 | > 100 | > 100 | > 100 | > 100 | 150 ± 60 | 150 ± 60 |
| O=C1O/C(=C\Cn2cc(-c3cc(F)cc(F)c3)nn2)C(O)=C1O [Compound 7d] | > 100 | > 100 | ≥ 200 | > 100 | > 100 | – | > 100 | > 100 | > 100 | > 100 | 230 | 230 |
